Source: ChEMBL document CHEMBL5465560, “Selectivity Literature for EUbOPEN Chemogenomic Library” (2024)
Values belong to the molecule of their own block, whether it stands above or below them.

What was measured:
[1] = biological target: T1, Ankyrin repeat and protein kinase domain-containing protein 1 (Homo sapiens) (UniProt Q8NFD2); assay: Selectivity interaction (LanthaScreen Eu Kinase Binding Assay) EUB0001632a ANKK1; conditions: at 10 µM
T1 sequence (whole entry): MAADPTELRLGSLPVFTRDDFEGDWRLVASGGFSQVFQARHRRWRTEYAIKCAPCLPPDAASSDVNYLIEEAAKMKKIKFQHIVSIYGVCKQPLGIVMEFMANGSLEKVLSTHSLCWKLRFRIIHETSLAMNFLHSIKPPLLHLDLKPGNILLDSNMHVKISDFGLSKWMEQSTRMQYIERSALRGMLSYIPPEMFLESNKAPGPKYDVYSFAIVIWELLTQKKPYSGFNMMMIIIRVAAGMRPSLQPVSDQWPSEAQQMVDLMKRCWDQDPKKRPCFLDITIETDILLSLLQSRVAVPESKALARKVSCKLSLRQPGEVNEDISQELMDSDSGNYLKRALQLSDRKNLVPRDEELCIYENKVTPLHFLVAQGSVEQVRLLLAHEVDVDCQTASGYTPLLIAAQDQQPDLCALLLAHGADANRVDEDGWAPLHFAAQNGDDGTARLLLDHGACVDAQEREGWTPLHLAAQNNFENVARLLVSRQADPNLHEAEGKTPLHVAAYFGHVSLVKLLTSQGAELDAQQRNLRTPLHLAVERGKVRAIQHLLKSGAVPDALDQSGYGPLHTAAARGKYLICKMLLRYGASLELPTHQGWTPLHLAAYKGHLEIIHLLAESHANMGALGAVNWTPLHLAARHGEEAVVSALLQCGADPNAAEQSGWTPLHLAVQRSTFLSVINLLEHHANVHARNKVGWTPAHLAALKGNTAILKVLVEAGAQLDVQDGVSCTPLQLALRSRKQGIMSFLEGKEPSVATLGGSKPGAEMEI

[2] = biological target: Mitogen-activated protein kinase 1 (Homo sapiens, UniProt P28482); assay: Selectivity interaction (Kinase panel (Z-LYTE Assay)) EUB0001632a MAPK1; conditions: at 10 µM
[3] = biological target: Protein arginine N-methyltransferase 1 (Homo sapiens, UniProt Q99873); assay: Selectivity interaction (Methyltransferase screen (radiometric assays, panel of 8 PRMTs, 21 protein lysine methyltransferases, 3 DNA methyltransferases, and one RNA methyltransferase)) EUB0000272b PRMT1
Sequence of Protein arginine N-methyltransferase 1 (Q99873 whole entry, looked up): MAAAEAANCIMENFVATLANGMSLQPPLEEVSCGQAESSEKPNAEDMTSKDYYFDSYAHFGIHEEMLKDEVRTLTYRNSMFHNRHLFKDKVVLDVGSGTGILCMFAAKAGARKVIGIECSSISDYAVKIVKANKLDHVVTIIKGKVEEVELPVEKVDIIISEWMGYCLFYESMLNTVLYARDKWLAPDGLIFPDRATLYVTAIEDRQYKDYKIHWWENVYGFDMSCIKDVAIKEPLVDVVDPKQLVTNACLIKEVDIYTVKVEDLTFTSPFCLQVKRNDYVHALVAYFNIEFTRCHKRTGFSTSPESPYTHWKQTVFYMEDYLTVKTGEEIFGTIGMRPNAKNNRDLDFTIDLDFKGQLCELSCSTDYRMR

[4] = biological target: Vascular endothelial growth factor receptor 2 (Homo sapiens, UniProt P35968); assay: Selectivity interaction (KinomeScan (DiscoverX)) EUB0000666a KDR; conditions: at 10 µM
[5] = biological target: Mitogen-activated protein kinase 3 (Homo sapiens, UniProt P27361); assay: Selectivity interaction (Upstate Kinase Profiler service (Millipore)) EUB0000056c MAPK3; conditions: at 1 µM
Sequence of Mitogen-activated protein kinase 3 (P27361 whole entry): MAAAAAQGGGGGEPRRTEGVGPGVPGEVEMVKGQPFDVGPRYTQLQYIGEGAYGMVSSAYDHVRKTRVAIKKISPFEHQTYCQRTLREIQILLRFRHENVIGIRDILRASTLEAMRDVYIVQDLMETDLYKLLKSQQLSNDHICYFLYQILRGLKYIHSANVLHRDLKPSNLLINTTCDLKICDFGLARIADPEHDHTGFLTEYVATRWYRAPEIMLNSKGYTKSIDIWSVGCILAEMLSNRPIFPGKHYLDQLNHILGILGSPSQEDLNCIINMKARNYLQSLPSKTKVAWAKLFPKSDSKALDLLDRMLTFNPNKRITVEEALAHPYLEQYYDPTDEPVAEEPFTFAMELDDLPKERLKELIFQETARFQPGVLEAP

[6] = biological target: Ribosomal protein S6 kinase alpha-1 (Homo sapiens, UniProt Q15418); assay: Selectivity interaction (Kinase panel (Invitrogen)) EUB0000639a RPS6KA1; conditions: at 200 nM
Sequence of Ribosomal protein S6 kinase alpha-1 (Q15418 whole entry): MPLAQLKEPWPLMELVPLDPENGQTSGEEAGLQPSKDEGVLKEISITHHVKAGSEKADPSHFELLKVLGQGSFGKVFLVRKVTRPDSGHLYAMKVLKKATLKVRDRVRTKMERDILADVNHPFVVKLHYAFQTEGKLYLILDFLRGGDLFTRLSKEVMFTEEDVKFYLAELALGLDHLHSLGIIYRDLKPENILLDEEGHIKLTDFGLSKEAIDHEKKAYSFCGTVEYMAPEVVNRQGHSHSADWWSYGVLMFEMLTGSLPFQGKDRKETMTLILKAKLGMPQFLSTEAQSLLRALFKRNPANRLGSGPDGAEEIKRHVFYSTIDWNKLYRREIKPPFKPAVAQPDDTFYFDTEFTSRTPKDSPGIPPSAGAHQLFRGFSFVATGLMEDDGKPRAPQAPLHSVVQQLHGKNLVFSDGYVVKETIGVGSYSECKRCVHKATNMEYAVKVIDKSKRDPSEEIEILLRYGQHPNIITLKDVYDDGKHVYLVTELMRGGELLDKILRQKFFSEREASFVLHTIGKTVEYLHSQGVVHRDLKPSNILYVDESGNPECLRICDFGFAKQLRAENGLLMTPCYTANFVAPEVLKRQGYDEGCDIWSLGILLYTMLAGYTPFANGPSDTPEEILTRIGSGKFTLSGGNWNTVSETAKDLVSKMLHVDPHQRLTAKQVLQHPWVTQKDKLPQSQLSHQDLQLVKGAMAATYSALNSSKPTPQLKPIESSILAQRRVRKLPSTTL

[7] = biological target: 5'-AMP-activated protein kinase catalytic subunit alpha-2 (Homo sapiens) (UniProt P54646); assay: Selectivity interaction (ActivX KiNativ screen (kinase selectivity in THP-1 cell lysates)) EUB0000639a PRKAA2; format: subcellular; conditions: lysate, at 0.2 µM
[8] = biological target: PAS domain-containing serine/threonine-protein kinase (Homo sapiens) (UniProt Q96RG2); assay: Selectivity interaction (ProQinase) EUB0000171b PASK
Sequence of PAS domain-containing serine/threonine-protein kinase (Homo sapiens) (Q96RG2 whole entry, the tested form may be a part): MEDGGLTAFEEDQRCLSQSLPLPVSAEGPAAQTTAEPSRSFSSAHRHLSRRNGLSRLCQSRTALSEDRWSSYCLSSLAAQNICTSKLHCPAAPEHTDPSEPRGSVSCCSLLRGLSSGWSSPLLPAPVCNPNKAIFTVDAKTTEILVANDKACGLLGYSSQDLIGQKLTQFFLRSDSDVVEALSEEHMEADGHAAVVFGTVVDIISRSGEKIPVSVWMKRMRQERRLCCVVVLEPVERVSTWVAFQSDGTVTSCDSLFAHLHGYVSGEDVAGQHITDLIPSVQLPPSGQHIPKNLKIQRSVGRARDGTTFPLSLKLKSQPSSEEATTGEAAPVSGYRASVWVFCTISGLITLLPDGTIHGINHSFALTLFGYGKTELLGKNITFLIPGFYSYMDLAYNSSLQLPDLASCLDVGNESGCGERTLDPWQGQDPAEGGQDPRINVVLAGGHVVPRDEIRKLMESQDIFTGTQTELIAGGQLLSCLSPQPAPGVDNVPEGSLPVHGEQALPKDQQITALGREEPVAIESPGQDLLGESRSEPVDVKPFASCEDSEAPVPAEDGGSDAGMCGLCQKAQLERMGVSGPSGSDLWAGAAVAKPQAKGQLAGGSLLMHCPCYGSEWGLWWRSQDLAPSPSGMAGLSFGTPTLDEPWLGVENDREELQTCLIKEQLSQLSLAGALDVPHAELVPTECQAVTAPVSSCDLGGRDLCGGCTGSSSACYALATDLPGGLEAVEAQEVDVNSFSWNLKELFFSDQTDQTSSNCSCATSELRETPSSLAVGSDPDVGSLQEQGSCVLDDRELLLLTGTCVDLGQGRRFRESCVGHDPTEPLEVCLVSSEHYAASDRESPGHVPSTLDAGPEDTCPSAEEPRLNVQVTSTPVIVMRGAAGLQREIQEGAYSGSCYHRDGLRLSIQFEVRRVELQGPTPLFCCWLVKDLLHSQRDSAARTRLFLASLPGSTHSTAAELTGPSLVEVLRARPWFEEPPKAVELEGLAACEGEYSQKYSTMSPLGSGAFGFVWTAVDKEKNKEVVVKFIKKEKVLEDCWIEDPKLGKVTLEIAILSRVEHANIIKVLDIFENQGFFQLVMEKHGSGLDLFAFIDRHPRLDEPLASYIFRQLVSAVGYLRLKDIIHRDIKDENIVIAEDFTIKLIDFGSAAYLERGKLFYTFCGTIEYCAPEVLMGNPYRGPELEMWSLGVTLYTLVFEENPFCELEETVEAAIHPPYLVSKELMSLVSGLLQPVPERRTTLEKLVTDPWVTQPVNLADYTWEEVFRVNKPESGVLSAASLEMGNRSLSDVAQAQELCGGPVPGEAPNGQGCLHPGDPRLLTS

[9] = biological target: BMP-2-inducible protein kinase (Homo sapiens) (UniProt Q9NSY1); assay: Selectivity interaction (KinomeScan (DiscoverX)) EUB0001049a BMP2K; conditions: at 1 µM
Sequence of BMP-2-inducible protein kinase (Homo sapiens) (Q9NSY1 whole entry, looked up): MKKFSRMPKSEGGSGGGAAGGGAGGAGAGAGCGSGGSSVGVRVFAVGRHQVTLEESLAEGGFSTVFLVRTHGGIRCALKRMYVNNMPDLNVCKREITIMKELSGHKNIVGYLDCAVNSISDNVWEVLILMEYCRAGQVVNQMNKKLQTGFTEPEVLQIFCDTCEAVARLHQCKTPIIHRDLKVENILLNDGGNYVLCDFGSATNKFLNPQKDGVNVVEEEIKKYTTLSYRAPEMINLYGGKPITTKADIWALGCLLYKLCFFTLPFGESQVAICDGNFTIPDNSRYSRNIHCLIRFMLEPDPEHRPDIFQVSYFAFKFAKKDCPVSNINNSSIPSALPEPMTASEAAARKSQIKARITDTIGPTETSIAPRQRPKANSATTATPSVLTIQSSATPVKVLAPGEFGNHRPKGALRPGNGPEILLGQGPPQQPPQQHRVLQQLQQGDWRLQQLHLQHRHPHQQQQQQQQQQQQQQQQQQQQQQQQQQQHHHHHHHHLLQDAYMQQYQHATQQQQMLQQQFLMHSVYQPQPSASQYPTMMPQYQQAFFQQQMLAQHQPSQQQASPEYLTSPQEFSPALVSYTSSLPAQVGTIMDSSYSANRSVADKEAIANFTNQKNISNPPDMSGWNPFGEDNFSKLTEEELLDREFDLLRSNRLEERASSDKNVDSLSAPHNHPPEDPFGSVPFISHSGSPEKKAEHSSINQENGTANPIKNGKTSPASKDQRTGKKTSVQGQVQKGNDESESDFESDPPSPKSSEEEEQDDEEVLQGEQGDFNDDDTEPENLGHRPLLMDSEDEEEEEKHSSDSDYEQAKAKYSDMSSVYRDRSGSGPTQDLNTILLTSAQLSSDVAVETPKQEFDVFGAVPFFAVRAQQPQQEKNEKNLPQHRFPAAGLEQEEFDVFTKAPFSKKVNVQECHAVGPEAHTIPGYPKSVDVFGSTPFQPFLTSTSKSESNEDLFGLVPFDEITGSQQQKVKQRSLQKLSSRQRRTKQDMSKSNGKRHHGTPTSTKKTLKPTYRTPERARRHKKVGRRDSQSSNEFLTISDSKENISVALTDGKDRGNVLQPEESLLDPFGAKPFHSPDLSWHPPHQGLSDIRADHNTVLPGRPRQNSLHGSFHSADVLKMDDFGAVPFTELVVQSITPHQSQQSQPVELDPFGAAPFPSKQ

[10] = biological target: T2, Serine/threonine-protein kinase MAK (Homo sapiens) (UniProt P20794); assay: Selectivity interaction (KinomeScan (DiscoverX)) EUB0000655a MAK; conditions: at 10 µM
T2 sequence (whole entry): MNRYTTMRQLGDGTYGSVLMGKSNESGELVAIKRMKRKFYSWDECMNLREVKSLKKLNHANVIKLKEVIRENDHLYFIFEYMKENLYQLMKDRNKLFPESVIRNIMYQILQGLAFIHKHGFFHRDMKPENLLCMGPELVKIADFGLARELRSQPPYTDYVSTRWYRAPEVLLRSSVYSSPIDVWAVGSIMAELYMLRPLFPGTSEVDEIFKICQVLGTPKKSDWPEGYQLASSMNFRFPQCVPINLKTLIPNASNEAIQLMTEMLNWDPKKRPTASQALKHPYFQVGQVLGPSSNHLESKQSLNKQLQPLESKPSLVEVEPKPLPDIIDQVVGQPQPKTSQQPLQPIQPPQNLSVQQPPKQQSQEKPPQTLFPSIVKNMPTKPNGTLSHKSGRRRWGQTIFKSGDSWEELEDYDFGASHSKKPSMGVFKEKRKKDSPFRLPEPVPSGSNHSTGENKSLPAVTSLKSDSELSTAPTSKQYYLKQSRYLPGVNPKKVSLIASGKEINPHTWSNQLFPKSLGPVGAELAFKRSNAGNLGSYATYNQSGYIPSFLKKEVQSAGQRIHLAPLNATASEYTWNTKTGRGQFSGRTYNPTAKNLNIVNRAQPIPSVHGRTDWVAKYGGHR

[11] = biological target: Beta-2 adrenergic receptor (Homo sapiens, UniProt P07550); assay: Selectivity interaction (GPCR panel (PDSP screen)) EUB0001079a ADRB2; conditions: at 10 µM
[12] = biological target: Calcium/calmodulin-dependent protein kinase type II subunit delta (Homo sapiens) (UniProt Q13557); assay: Selectivity interaction (Kinase panel (KiNativ target engagement assay in Jurkat cells)) EUB0001635a CAMK2D; format: cell-based; conditions: Selectivity number of off-targets 0.0, Selectivity number of targets 233.0, Source Knowledge https://www.sciencedirect.com/science/article/pii/S2451945619300674?via%3Dihub, at 1 µM
Sequence of Calcium/calmodulin-dependent protein kinase type II subunit delta (Homo sapiens) (Q13557 whole entry): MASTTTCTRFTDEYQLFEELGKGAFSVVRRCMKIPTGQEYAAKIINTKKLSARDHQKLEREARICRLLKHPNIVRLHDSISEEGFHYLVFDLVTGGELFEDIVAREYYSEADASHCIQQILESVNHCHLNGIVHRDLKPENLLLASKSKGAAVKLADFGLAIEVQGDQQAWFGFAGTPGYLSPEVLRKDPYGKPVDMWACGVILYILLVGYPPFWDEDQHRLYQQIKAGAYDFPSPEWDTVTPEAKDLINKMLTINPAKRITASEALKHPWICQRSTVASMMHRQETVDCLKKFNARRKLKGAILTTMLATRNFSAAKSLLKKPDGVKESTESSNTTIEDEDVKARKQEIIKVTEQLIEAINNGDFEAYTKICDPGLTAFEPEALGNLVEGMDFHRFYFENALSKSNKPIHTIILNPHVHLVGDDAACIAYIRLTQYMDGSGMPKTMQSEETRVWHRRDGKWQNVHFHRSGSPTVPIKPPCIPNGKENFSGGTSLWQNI

[13] = biological target: Mitogen-activated protein kinase 11 (Homo sapiens) (UniProt Q15759); assay: Selectivity interaction (KinomeScan (DiscoverX)) EUB0000229b MAPK11; conditions: at 10 µM
Sequence of Mitogen-activated protein kinase 11 (Homo sapiens) (Q15759 whole entry): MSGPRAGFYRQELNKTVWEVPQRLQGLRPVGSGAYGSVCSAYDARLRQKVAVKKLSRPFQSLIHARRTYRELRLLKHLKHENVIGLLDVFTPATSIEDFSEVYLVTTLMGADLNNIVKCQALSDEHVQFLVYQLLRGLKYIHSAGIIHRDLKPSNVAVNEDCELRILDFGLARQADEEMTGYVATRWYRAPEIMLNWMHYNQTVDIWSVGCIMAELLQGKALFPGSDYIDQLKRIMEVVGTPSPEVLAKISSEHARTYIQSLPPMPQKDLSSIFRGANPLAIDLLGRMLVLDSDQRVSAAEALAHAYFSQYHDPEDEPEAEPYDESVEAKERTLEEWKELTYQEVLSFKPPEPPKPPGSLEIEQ

[14] = biological target: Tyrosine-protein kinase Lyn (Homo sapiens, UniProt P07948); conditions: at 10 µM

% of inhibition [1]: -44.9% | % of control [2]: -3.31%
SMILES: Cn1cc(-n2cnc3c(NCc4nc5cc(Cl)c(Cl)cc5[nH]4)nc(N4CCOCC4)nc32)cn1

% of activity ([3]; at 1 µM): 98.7% | % of activity ([3]; at 10 µM): 101%
SMILES: Cc1cc(C)cc([C@H]2c3cc(C)ccc3NC(=O)CN2C(=O)c2ccc(Br)s2)c1

SMILES: O=C(NOC[C@H](O)CO)c1ccc(F)c(F)c1Nc1ccc(I)cc1F
% of control [4]: 84%

% of inhibition [5]: -1%
SMILES: Cc1ccc(-c2ccc3c(ccc4sc5c(c43)NC[C@@H](C)NC5=O)n2)cn1

% of inhibition [6]: 2.83% | % of inhibition [7]: -4.3%
SMILES: CC[C@@H]1[C@H](F)C(=O)N[C@@H]1COc1nccc2cc(C(N)=O)c(OC)cc12 [ZIMLOVISERTIB]

% of control ([8]; at 1 µM): 81% | % of control ([8]; at 5 µM): 55%
SMILES: C=CC(=O)Nc1cccc(C(=O)Nc2ccc(Nc3cc(-c4[nH]c(SC)nc4C)ccn3)cc2)c1

SMILES: COc1cc(Nc2nc(C)cc(-c3cnn4nc(OC)ccc34)n2)cc(C(F)(F)F)c1
% of control [9]: 86%

SMILES: CN(C)CCOc1ccc(-c2nc(-c3ccncc3)c(-c3ccc4c(c3)CC/C4=N\O)[nH]2)cc1
% of control [10]: 100%

SMILES: Nc1cnc(N2CCc3cc(S(=O)(=O)Nc4c(F)cc(Cl)cc4F)cc(N4CCCC4=O)c32)nc1 [TP-020n]
% of inhibition [11]: -3.08%

SMILES: C=CC(=O)Nc1ccc(C(=O)Nc2[nH]nc3c2CN(C(=O)N[C@H](CN(C)C)c2ccccc2)C3(C)C)cc1
% of engagement [12]: 34.1%

SMILES: COc1cc(N(C)c2ccnc3ccc(C(F)(F)F)cc23)cc(OC)c1OC
% binding [13]: 90%

SMILES: Cc1cc([C@@H](C)Nc2ccccc2C(=O)O)c2nc(N3CCOCC3)cc(=O)n2c1 [AZD-6482]
% of control [14]: 99%
